Results: patent US10201568B2, “Brain, spinal, and nerve injury treatment” (EUSTRALIS PHARMACEUTICALS LIMITED, priority 2000, dated 2019)

Tests used:
[1] = limits its ability to naturally cross the blood brain barrier; cited from earlier work
[2] = tested on: brain injured animals; assay: brain water accumulation (cerebral oedema) after injury; assay type: in vivo; conditions: at 24 hours after injury, compared to vehicle treated controls
Procedure: (§1) This was consistent with the observation that N-acetyl-L-tryptophan reduced brain penetration of Evans blue at 5 hours after injury: the time associated with maximum blood brain barrier permeability and reduced vasogenic oedema formation.

[3] = tested on: brain injured animals; assay: otarod test, motor outcome after brain injury; assay type: in vivo
Source text: (§2) A number of commercially synthesized substance P receptor antagonists are currently available from standard scientific chemical suppliers, as is apparent form Tables 1, 2, and 3. We chose to use the compound N-acetyl-L-tryptophan based on its low lipid solubility that limits its ability to naturally cross the blood brain barrier and the fact that it is relatively inexpensive.

[4] = tested on: brain injured animals; assay: Barnes Circular Maze, cognitive outcome after brain injury; assay type: in vivo
Source text: as §2

[5] = tested on: blood brain barrier permeability; assay: brain penetration of Evans blue after injury; assay type: in vivo; conditions: at 5 hours after injury (time of maximum blood brain barrier permeability)
Procedure: as §1

[6] = intravenous 246 mg/kg (saline vehicle) at 30 minutes after brain injury, apparent at 24 hours, persisted for 14 day assessment period, vs vehicle

CC(=O)N[C@@H](Cc1c[nH]c2ccccc12)C(=O)O [N-acetyl-L-tryptophan]
lipid solubility [1]: low | brain water accumulation (i.e. cerebral oedema) [2]: significant reduction | motor outcome ([3]; 24.6 mg/kg): less of a beneficial effect | motor outcome as assessed by the otarod test [3, 6]: significant improvement | cognitive outcome of brain injured animals ([4]; 24.6 mg/kg): significantly improved | cognitive outcome as assessed by the Barnes Circular Maze [4, 6]: significant improvement | brain penetration of Evans blue [5]: reduced
